Patent publication US12552785B2, “Pyrazolo[1,5-α]pyridine derivative, preparation method therefor, and composition and use thereof” (SHENZHEN ZHONGGE BIOLOGICAL TECHNOLOGY CO., LTD., priority 2020, dated 2026)

Key:
RET = RET (Homo sapiens, UniProt P07949); assay: HTRF method for testing the inhibitory activity of compounds against RET; type: biochemical; settings: IC50 by nonlinear regression, read-out: RET kinase activity
Method: (a) In Vitro Screening Experiment-HTRF Method for Testing the Inhibitory Activity of Compounds Against RET Experimental Procedure: 1. […] 2. The test compound (5 mM stock solution) was diluted 5 folds to 1 mM with 100% dimethyl sulfoxide; the compound was diluted into 10 concentrations at an equal ratio of 1:3 in a 384-well dilution plate. 3. 0.2 μL of the serially diluted compound was added to a 384-well plate using an Echo 550 pipetting system, 2 replicate wells for each concentration, and the final concentration of dimethyl sulfoxide was 0.5% (v/v). […] 6. […] The reaction solution was centrifuged at 1000 g for 30 s, and then sealed, and incubated at room temperature for 30 min. 8. […] 10. […] 11. […] IC50 was calculated with software GraphPad 6.0 by fitting inhibition values and logarithms of compound concentrations to a nonlinear regression (dose response−variable slope).

VEGFR2 = VEGFR2 (Homo sapiens, UniProt P35968); assay: HTRF method for testing the inhibitory activity of compounds against VEGFR2; type: biochemical; settings: IC50 by nonlinear regression, read-out: VEGFR2 kinase activity
Chain of VEGFR2 (P35968 20-1356, species assumed): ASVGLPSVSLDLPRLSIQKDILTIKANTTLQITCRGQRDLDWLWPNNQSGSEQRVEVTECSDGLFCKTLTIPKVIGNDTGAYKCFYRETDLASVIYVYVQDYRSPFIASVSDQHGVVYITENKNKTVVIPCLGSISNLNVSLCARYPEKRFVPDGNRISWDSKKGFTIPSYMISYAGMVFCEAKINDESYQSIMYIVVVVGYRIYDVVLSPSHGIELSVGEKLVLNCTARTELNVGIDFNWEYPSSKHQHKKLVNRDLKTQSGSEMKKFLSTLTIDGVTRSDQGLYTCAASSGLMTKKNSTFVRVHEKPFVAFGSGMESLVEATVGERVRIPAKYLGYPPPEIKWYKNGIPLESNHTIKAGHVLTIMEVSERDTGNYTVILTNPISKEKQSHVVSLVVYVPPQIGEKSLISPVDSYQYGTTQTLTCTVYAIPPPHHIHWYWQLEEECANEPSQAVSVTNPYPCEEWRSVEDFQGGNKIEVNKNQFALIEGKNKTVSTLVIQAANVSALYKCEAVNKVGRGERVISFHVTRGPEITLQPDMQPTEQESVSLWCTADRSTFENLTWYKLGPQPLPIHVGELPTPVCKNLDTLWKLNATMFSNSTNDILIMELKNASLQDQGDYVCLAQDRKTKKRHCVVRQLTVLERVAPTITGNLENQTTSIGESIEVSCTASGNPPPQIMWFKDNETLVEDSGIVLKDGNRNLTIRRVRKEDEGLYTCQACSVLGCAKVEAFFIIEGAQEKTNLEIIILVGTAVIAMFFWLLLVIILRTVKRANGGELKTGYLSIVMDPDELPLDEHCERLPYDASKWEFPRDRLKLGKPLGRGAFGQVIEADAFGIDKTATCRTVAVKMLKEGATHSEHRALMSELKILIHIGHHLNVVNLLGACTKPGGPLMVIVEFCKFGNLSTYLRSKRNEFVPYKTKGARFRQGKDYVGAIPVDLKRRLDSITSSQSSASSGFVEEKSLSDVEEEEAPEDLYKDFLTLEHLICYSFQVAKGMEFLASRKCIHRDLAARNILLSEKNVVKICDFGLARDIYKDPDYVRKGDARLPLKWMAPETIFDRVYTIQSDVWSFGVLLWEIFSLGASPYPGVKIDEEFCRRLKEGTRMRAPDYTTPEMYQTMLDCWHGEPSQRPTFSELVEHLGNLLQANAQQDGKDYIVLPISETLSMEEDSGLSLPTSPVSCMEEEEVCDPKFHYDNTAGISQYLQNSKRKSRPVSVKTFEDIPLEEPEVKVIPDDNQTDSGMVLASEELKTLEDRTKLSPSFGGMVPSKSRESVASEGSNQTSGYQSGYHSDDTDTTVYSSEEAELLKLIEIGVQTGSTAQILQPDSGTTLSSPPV
Method: (b) In Vitro Screening Experiment—HTRF Method for Testing the Inhibitory Activity of Compounds Against VEGFR2 Experimental Procedure: 1. […] The test compound (5 mM stock solution) was diluted 5 folds to 1 mM with 100% dimethyl sulfoxide; the compound was diluted into 10 concentrations at an equal ratio of 1:3 in a 384-well dilution plate. 3. […] 6. […] The reaction solution was centrifuged at 1000 g for 30 s, and then sealed, and incubated at room temperature for 40 min. 8. […] 10. […] 11. […] 12. IC50 was calculated with software GraphPad 6.0 by fitting inhibition values and logarithms of compound concentrations to a nonlinear regression (dose response−variable slope).

Ba/F3-KIF5B-RET cell = molecular target: T1, Ba/F3-KIF5B-RET cell (Homo sapiens, UniProt P07949); assay: CellTiter-Glo luminescence assay for inhibitory activity against Ba/F3-KIF5B-RET cell; type: cell-based; settings: Ba/F3-KIF5B-RET cells, 72 h
T1 construct: fused on or other part: P33176 (Kinesin-1 heavy chain)
T1 sequence (P07949 whole entry, stated change not applied, the tested form may be a part): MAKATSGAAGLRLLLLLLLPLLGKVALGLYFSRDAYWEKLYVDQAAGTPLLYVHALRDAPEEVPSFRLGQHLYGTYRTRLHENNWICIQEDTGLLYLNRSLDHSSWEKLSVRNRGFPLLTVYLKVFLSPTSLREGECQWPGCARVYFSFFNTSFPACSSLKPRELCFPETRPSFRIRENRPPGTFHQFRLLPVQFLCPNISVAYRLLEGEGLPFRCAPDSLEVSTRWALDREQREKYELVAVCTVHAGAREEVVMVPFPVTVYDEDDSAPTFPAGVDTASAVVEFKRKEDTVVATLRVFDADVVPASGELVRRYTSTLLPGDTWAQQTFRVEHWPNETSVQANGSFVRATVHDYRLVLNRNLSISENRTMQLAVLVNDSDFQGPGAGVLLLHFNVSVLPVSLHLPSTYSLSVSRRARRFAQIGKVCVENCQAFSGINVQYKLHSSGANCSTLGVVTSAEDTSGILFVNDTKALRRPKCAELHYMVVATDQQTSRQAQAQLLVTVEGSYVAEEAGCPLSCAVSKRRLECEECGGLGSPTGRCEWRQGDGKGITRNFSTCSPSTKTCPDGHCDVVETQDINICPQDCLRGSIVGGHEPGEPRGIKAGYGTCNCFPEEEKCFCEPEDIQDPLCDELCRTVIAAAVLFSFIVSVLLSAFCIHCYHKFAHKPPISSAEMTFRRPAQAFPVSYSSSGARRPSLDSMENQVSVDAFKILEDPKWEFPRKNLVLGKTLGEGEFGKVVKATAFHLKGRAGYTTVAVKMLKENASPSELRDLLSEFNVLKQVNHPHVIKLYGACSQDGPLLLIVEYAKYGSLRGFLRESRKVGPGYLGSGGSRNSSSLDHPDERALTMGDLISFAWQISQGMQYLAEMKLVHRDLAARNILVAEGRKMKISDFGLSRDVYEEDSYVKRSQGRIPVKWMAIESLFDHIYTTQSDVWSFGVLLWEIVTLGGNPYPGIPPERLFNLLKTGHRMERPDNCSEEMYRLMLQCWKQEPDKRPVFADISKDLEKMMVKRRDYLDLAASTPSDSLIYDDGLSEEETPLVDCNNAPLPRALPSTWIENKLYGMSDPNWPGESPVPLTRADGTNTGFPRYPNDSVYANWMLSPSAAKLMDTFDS
Text: (c) In Vitro Screening Experiment—CellTiter-Glo Luminescence Assay for Testing the Inhibitory Activity of Compounds Against Ba/F3-KIF5B-RET Cell Experimental Procedure: 1. The mammalian cell expression vector containing human KIF5B-RET cDNA was introduced into Ba/F3 cells using the Neon® transfection system method, and the surviving clones screened by puromycin were subjected to cell growth inhibitory function experiments and Western blotting to verify cell lines with stable and high expression of RET. 2. […] 3. The test compound (5 mM stock) was diluted 2.5 folds to 2 mM with 100% dimethyl sulfoxide; and the compound was diluted into 10 concentrations at an equal ratio of 1:3 in a 384-well dilution plate. 4. […] 6. […] 7. By fitting the data with XLFit 5.0 based on the parameters formula, the IC50 value was calculated as: Y=Bottom+(Top−Bottom)/(1+10^((Log IC50−X)*HillSlope)).

Chain of RET (P07949 29-1114): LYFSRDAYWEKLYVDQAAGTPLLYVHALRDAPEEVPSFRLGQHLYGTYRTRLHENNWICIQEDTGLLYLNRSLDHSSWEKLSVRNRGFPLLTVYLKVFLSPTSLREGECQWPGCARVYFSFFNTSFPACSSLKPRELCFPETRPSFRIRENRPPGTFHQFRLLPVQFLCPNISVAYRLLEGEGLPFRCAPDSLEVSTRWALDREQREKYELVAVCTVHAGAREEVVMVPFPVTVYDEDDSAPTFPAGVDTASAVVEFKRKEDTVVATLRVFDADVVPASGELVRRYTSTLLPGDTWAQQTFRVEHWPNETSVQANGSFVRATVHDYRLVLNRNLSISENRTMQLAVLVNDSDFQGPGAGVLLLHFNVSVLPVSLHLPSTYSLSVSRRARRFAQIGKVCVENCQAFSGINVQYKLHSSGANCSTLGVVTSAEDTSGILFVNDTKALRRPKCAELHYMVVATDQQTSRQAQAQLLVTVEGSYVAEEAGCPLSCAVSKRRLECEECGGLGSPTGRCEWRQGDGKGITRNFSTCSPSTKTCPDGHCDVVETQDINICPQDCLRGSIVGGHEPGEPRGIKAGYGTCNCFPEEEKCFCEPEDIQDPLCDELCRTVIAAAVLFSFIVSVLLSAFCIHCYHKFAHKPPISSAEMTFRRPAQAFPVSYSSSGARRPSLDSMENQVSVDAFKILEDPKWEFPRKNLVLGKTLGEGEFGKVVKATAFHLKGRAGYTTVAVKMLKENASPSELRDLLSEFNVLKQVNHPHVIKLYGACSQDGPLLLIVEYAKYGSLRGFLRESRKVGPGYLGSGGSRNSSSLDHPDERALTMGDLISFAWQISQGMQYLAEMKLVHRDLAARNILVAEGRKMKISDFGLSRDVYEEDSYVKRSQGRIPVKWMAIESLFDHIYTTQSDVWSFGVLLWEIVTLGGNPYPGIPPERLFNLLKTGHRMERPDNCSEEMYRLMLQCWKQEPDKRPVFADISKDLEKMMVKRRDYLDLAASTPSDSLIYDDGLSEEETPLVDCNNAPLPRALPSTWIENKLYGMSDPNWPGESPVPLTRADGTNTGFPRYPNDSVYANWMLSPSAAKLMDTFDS

SMILES	IC50 (RET)	IC50 (VEGFR2)	GI50 (Ba/F3-KIF5B-RET cell)
CC(C)(O)COc1cc(-c2ccc(NCc3ccc(-n4cc(F)cn4)nc3)nc2)c2c(C#N)cnn2c1 [Compound 1, 4-(6-(((6-(4-fluoro-1H-pyrazol-1-yl)pyridin-3-yl)methyl)amino)pyridin-3-yl)-6-(2-hydroxy-2-methylpropoxy)pyrazolo[1,5-a]pyridine-3-carbonitrile]	0.34 nM	7.37 nM	13.9 nM
C[C@H](Nc1ccc(-c2cc(OCC(C)(C)O)cn3ncc(C#N)c23)cn1)c1ccc(-n2cc(F)cn2)nc1 [Compound 2, (S)-4-(6-((1-(6-(4-fluoro-1H-pyrazol-1-yl)pyridin-3-yl)ethyl)amino)pyridin-3-yl)-6-(2-hydroxy-2-methylpropoxy)pyrazolo[1,5-a]pyridine-3-carbonitrile]	0.46 nM	3.51 nM	10.7 nM
N#Cc1cnn2cc(OC[C@H]3CNCCO3)cc(-c3ccc(NCc4ccc(-n5cc(F)cn5)nc4)nc3)c12 [Compound 3]	0.19 nM	1.08 nM	18 nM
C[C@H](Nc1ccc(-c2cc(OC[C@H]3CNCCO3)cn3ncc(C#N)c23)cn1)c1ccc(-n2cc(F)cn2)nc1 [Compound 4]	0.18 nM	0.31 nM	12 nM
C[C@@H](Nc1ccc(-c2cc(OCC(C)(C)O)cn3ncc(C#N)c23)cn1)c1ccc(-n2cc(F)cn2)nc1 [Compound 5, (R)-4-(6-((1-(6-(4-fluoro-1H-pyrazol-1-yl)pyridin-3-yl)ethyl)amino)pyridin-3-yl)-6-(2-hydroxy-2-methylpropoxy)pyrazolo[1,5-a]pyridine-3-carbonitrile]	6.3 nM	44.7 nM	85.1 nM
CC(Nc1ccc(-c2cc(OCC(C)(C)O)cn3ncc(C#N)c23)cn1)c1ccc(-n2cc(F)cn2)nc1 (stereo not drawn) [Compound 6]	1.2 nM	11.8 nM	50.5 nM
CC(C)(O)COc1cc(-c2ccc(NCc3ccc(-n4ccnc4)nc3)nc2)c2c(C#N)cnn2c1 [Compound 7]	7.14 nM	72.1 nM	203 nM
CC(C)(O)COc1cc(-c2ccc(NCc3ccc(N4CCCC4=O)nc3)nc2)c2c(C#N)cnn2c1 [Compound 8, 6-(2-hydroxy-2-methylpropoxy)-4-(6-((6-(2-oxopyrrolidin-1-yl)pyridin-3-yl)methylamino)pyridine-3-yl)pyrazolo[1,5-a]pyridine-3-carbonitrile]	9.4 nM	170 nM	68.5 nM
CC(C)(O)COc1cc(-c2ccc(NCc3ccc(-c4cccnc4)nc3)nc2)c2c(C#N)cnn2c1 [Compound 9, 4-(6-(([2,3′-bipyridyl]-5-ylmethyl)amino)pyridin-3-yl)-6-(2-hydroxy-2-methylpropoxy)pyrazole[1,5-a]pyridine-3-carbonitrile]	19.6 nM	116 nM	145 nM
CC(C)(O)COc1cc(-c2ccc(NCc3ccc(N4CCCC4)nc3)nc2)c2c(C#N)cnn2c1 [Compound 10, 6-(2-hydroxy-2-methylpropoxy)-4-(6-(((6-(pyrrolidin-1-yl)pyridin-3-yl)methyl)amino)pyridine-3-yl)pyrazo[1,5-a]pyridine-3-carbonitrile]	2.08 nM	90.8 nM	7.3 nM
Cc1cn(-c2ccc(CNc3ccc(-c4cc(OCC(C)(C)O)cn5ncc(C#N)c45)cn3)cn2)cn1 [Compound 11]	12.5 nM	110 nM	613 nM
CC(C)(O)COc1cc(-c2ccc(NCc3ccc(N4CCOCC4)nc3)nc2)c2c(C#N)cnn2c1 [Compound 12]	12.8 nM	107 nM	75.5 nM
CC(C)(O)COc1cc(-c2ccc(NCc3ccc4cccnc4c3)nc2)c2c(C#N)cnn2c1 [Compound 13]	5.17 nM	136 nM	50.8 nM
CN(Cc1ccc2ncccc2c1)c1ccc(-c2cc(OCC(C)(C)O)cn3ncc(C#N)c23)cn1 [Compound 14, 6-(2-hydroxy-2-methylpropoxy)-4-(6-(methyl(quinolin-6-ylmethyl)amino)pyridin-3-yl)pyrazolo[1,5-a]pyridine-3-carbonitrile]	16.6 nM	347 nM	220 nM
CC[C@H](Nc1ccc(-c2cc(OCC(C)(C)O)cn3ncc(C#N)c23)cn1)c1ccc(-n2cc(F)cn2)nc1 [Compound 15, (S)-4-(6-((1-(6-(4-fluoro-1H-pyrazol-1-yl)pyridin-3-yl)propyl)amino)pyridin-3-yl)-6-(2-hydroxy-2-methylpropoxy)pyrazolo[1,5-a]pyridine-3-carbonitrile]	0.58 nM	2.95 nM	10.4 nM
C=CCOc1cc(-c2ccc(N(C)[C@@H](C)c3ccc(-n4cc(F)cn4)nc3)nc2)c2c(C#N)cnn2c1 [Compound 31, (S)-4-(6-((1-(6-(4-fluoro-1H-pyrazol-1-yl)pyridin-3-yl)ethyl)(methyl)amino)pyridine-3-yl)-6-allyloxypyrazolo[1,5-a]pyridine-3-carbonitrile]	269 nM	> 5000 nM	–
Cc1cnn(-c2ccc([C@H](C)N(C)c3ccc(-c4cc(OCC(C)(C)O)cn5ncc(C#N)c45)cn3)cn2)c1 [Compound 37]	–	270 nM	18.6 nM
COc1cc(-c2ccc(N(C)[C@@H](C)c3ccc(-n4cc(F)cn4)nc3)nc2)c2c(C#N)cnn2c1 [Compound 40, (S)-4-(6-((1-(6-(4-fluoro-1H-pyrazol-1-yl)pyridin-3-yl)ethyl)(methyl)amino)pyridine-3-yl)-6-methoxypyrazolo[1,5-a]pyridine-3-carbonitrile]	0.83 nM	48.3 nM	–
C[C@@H](c1ccc(-n2cc(F)cn2)nc1)N(C)c1ccc(-c2cc(OCCF)cn3ncc(C#N)c23)cn1 [Compound 41, (S)-4-(6-((1-(6-(4-fluoro-1H-pyrazol-1-yl)pyridin-3-yl)ethyl)(methyl)amino)pyridine-3-yl)-6-(2-fluoroethoxy)pyrazolo[1,5-a]pyridine-3-carbonitrile]	0.34 nM	49.7 nM	–
CCN(CC)c1ccc([C@H](C)N(C)c2ccc(-c3cc(OCC(C)(C)O)cn4ncc(C#N)c34)cn2)cn1 [Compound 42, (S)-4-(6-((1-(6-(diethylamino)pyridin-3-yl)ethyl)(methyl)amino)pyridin-3-yl)-6-(2-hydroxy-2-methylpropoxy)pyrazolo[1,5-a]pyridine-3-carbonitrile]	18 nM	199 nM	–
C[C@@H](c1ccc(-n2cc(Cl)cn2)nc1)N(C)c1ccc(-c2cc(OCC(C)(C)O)cn3ncc(C#N)c23)cn1 [Compound 45, (S)-4-(6-((1-(6-(4-chloro-1H-pyrazol-1-yl)pyridin-3-yl)ethyl)(methyl)amino)pyridine-3-yl)-6-(2-hydroxy-2-methylpropoxy)pyrazo[1,5-a]pyridine-3-carbonitrile]	–	1980 nM	39.3 nM
CNc1cc(-c2ccc(N(C)[C@@H](C)c3ccc(-n4cc(F)cn4)nc3)nc2)c2c(C#N)cnn2c1 [Compound 52, (S)-4-(6-((1-(6-(4-fluoro-1H-pyrazol-1-yl)pyridin-3-yl)ethyl)(methyl)amino)pyridine-3-yl)-6-(methylamino)pyrazolo[1,5-a]pyridine-3-carbonitrile]	0.29 nM	5.62 nM	–
COCCOc1cc(-c2ccc(N(C)[C@@H](C)c3ccc(-n4cc(F)cn4)nc3)nc2)c2c(C#N)cnn2c1 [Compound 54, (S)-4-(6-((1-(6-(4-fluoro-1H-pyrazol-1-yl)pyridin-3-yl)ethyl)(methyl)amino)pyridine-3-yl)-6-(2-methoxyethoxy)pyrazolo[1,5-a]pyridine-3-carbonitrile]	0.3 nM	21.1 nM	–
C[C@@H](c1ccc(-n2cc(F)cn2)nc1)N(C)c1ccc(-c2cc(N3CCCC3)cn3ncc(C#N)c23)cn1 [Compound 59]	3.49 nM	64.3 nM	–
Cc1ccc([C@H](C)N(C)c2ccc(-c3cc(OCC(C)(C)O)cn4ncc(C#N)c34)cn2)cn1 [Compound 63]	4.56 nM	361 nM	–
C#Cc1cc(-c2ccc(N(C)[C@@H](C)c3ccc(-n4cc(F)cn4)nc3)nc2)c2c(C#N)cnn2c1 [Compound 65]	2.66 nM	780 nM	–
CCc1cc(-c2ccc(N(C)[C@@H](C)c3ccc(-n4cc(F)cn4)nc3)nc2)c2c(C#N)cnn2c1 [Compound 66]	4.35 nM	241 nM	–
